Test [1] addresses Phosphatidylinositol 4,5-bisphosphate 3-kinase catalytic subunit alpha isoform (Homo sapiens, UniProt P42336). In words: Inhibition of PI3Kalpha by luminescent kinase glo assay. The following applies: for inhibition: concentration not given here. (In general: Kinase-Glo measures the ATP left after a reaction by luminescence.)
Test [2] deals with Phosphatidylinositol 4,5-bisphosphate 3-kinase catalytic subunit gamma isoform (Homo sapiens, UniProt P48736). In words: Inhibition of PI3Kgamma by luminescent kinase glo assay.
Test [3] in a line: Selectivity ratio of IC50 for PI3Kgamma to IC50 for PI3Kalpha.

Sequence of Phosphatidylinositol 4,5-bisphosphate 3-kinase catalytic subunit alpha isoform (P42336 whole entry, canonical isoform): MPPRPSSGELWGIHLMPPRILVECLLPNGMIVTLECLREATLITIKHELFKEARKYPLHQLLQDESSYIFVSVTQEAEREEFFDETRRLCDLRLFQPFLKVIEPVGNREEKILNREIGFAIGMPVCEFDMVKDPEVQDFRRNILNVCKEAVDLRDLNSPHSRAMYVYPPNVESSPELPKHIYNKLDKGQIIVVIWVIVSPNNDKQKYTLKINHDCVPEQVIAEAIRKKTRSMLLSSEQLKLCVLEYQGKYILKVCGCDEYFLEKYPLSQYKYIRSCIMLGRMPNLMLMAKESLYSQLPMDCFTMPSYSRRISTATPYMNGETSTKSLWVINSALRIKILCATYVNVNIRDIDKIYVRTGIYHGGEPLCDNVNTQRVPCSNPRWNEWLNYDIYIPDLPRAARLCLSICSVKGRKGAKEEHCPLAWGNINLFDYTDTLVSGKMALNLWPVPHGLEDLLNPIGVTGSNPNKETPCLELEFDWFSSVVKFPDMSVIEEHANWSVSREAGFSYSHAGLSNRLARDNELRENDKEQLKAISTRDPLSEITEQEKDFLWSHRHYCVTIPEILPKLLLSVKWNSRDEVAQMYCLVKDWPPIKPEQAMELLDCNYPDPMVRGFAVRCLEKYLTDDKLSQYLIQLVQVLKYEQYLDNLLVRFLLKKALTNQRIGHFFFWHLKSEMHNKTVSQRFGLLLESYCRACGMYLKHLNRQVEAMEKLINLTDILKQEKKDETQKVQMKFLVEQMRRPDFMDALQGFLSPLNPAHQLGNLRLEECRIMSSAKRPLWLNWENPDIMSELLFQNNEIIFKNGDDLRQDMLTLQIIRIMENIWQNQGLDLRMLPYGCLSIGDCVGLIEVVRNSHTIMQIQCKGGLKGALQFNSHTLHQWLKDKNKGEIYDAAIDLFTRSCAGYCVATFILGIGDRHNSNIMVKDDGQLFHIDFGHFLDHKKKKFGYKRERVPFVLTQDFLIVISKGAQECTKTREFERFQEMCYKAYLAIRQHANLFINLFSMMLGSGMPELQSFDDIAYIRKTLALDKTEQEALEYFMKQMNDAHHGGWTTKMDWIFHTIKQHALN
Sequence of Phosphatidylinositol 4,5-bisphosphate 3-kinase catalytic subunit gamma isoform (P48736 whole entry, canonical isoform): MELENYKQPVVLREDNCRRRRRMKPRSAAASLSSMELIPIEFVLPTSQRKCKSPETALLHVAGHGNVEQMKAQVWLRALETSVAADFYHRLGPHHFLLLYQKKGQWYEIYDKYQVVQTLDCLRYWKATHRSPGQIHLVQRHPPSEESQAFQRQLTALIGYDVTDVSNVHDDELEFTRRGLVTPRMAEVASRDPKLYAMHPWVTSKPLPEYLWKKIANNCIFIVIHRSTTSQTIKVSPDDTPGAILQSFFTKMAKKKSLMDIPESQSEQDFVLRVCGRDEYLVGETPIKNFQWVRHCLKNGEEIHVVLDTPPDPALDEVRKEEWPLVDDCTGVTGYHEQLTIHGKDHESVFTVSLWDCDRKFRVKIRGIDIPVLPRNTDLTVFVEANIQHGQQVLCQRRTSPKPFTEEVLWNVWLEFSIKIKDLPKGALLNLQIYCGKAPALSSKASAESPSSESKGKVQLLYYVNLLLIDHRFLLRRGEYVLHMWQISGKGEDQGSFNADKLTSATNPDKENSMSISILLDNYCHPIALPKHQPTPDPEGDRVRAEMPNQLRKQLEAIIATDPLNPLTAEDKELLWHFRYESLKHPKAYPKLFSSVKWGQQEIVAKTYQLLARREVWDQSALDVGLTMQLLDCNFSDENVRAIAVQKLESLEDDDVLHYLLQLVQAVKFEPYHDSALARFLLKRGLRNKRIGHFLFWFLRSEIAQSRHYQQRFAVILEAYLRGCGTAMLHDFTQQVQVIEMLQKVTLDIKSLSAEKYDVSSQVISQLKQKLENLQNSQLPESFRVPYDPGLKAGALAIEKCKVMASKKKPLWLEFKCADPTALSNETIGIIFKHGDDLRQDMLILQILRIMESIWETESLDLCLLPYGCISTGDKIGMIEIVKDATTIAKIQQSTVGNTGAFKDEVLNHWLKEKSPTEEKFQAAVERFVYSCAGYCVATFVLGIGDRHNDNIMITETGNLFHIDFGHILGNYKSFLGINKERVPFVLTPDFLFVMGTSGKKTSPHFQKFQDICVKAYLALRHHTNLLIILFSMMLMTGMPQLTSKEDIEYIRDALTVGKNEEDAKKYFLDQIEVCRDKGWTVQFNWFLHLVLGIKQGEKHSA

The IC50 is the midpoint of a concentration-inhibition curve. The low end stands for higher potency, the high end for lower potency. As for `Cc1cc(F)ccc1NCc1cc(C(=O)O)cc(Cl)n1`, the IC50 in test [1] and in test [2] was more than 100 µM throughout.

In general, inhibition refers to the percentage by which the read-out fell short of the control. Consider `Cc1cc(F)ccc1NCc1cc(C(=O)O)cc(N2CCCCC2)n1`, for which, in test [1], the inhibition is less than 10%. In test [2], this molecule registered an IC50 of more than 100 µM.

As for `Cc1cc(F)ccc1OCc1cc(C(N)=O)cc(N2CCOCC2)n1`, the values for the IC50 in test [1] and in test [2] were more than 10 µM and less than 10 µM, respectively.

As to `Cc1cc(F)ccc1OCc1cc(C(=O)NO)cc(N2CCOCC2)n1`, the IC50 was not below 10 µM in test [1] and 10 µM in test [2].

`Cc1cc(F)ccc1NCc1cc(CO)cc(N2CCOCC2)n1`: the values for the IC50 in test [1] and in test [2] were 20 µM and not below 100 µM, respectively.

On to `Cc1cc(F)ccc1NCc1cc(C(=O)O)cc(-c2cccc(O)c2)n1`, for which the IC50 in test [1] was 100 µM; in test [2], 42 µM.

As to `Cc1cc(F)ccc1NCc1cc(C(=O)O)cc(-c2ccccc2O)n1`, the IC50 in test [1] and in test [2] was more than 100 µM in each case.

With `Cc1cc(F)ccc1NCc1cc(C(=O)NCCO)cc(NCCO)n1`, the half-inhibitory concentration (IC50) in test [1] and in test [2] was more than 100 µM each time.

Consider `Cc1cc(F)ccc1NCc1cc(C(=O)O)cc(N2CCC(O)C2)n1` (stereo not drawn), for which the IC50 in test [1] and in test [2] was more than 100 µM each time.

Turning to `CCOC(=O)c1ccnc(N2CCOCC2)c1`, the IC50 was 51 µM in test [1] and more than 100 µM in test [2].

For the molecule `Cc1cc(F)ccc1OCc1cc(C(=O)NCCO)cc(N2CCOCC2)n1`, the concentration for half-maximal inhibition (IC50) in test [1] and in test [2] was not below 50 µM throughout.

Consider `Cc1cc(F)ccc1NCc1cc(C(=O)O)cc(N2CCNCC2)n1`, for which the IC50 in test [1] and in test [2] was more than 100 µM throughout.

Turning to `CCOC(=O)c1cc(CNc2ccc(F)cc2C)nc(N2CCOCC2)c1`, the inhibition in test [1] is less than 10%. This molecule came in with a half-inhibitory concentration (IC50) in test [2] of less than 10 µM.

In the case of `Cc1cc(F)ccc1NCc1cc(C(=O)O)cc(-c2ccc(O)cc2)n1`, the half-inhibitory concentration (IC50) in test [1] and in test [2] was 100 µM throughout.

As to `Cc1cc(F)ccc1NCc1cc(C=O)cc(N2CCOCC2)n1`, the IC50 in test [1] and in test [2] was 100 µM throughout.

Take `Cc1cc(F)ccc1NCc1cc(C(=O)O)cc(N(C)CCO)n1`: the IC50 in test [1] and in test [2] was more than 100 µM each time.

For `Cc1cc(F)ccc1NCc1cc(C(=O)O)cc(NCCO)n1`, the IC50 in test [1] is 100 µM; in test [2], more than 100 µM.

With `Cc1cc(F)ccc1NCc1cc(C(=O)O)cc(-c2cccnc2)n1`, the half-inhibitory concentration (IC50) in test [1] and in test [2] was more than 100 µM each time.

`Cc1cc(F)ccc1NCc1cc(C(=O)O)cc(-c2ccncc2)n1`: the results for the half-inhibitory concentration (IC50) in test [1] and in test [2] were 29 µM and 42 µM, respectively.

For `CCOC(=O)c1cc(COc2ccc(F)cc2C)nc(N2CCOCC2)c1`, the inhibition in test [1] was less than 10%. Further, the IC50 in test [2] is less than 10 µM.

Consider `O=C(O)c1ccnc(N2CCOCC2)c1`, for which the IC50 in test [1] is 36 µM; in test [2], more than 100 µM.

For the molecule `Cc1cc(F)ccc1NCc1cc(C(=O)N2CCC(O)C2)cc(N2CCC(O)C2)n1` (stereo not drawn), the IC50 in test [1] and in test [2] was more than 100 µM each time.

In turn, `Cc1cc(F)ccc1NCc1cc(C(=O)O)cc(N2CCCC2)n1` returned an inhibition in test [1] of less than 10%. This molecule gave a half-maximal inhibitory concentration (IC50) in test [2] of more than 100 µM.

With `Cc1cc(F)ccc1NCc1cc(C(=O)O)cc(N2CCOCC2)n1`, the IC50 in test [1] was 5 µM; in test [2], 34 µM.

For `Cc1cc(F)ccc1NCc1cc(C(=O)O)cc(N(CCO)CCO)n1`, the IC50 in test [1] and in test [2] was more than 100 µM in each case.

Turning to `Cc1cc(F)ccc1OCc1cc(C(=O)O)cc(N2CCOCC2)n1`, the IC50 was determined as 7 µM in test [1] and 23 µM in test [2]. Also, in test [3], the Ratio IC50 is 6.

(Values after ChEMBL document CHEMBL1153990, “Exploring the PI3K alpha and gamma binding sites with 2,6-disubstituted isonicotinic derivatives” (Bioorg Med Chem Lett, 2009).)
